Results taken from PubChem BioAssay AID330 (DTP/NCI, 2004).
Values joined by “and” are separate entries in the source; they are usually repeats but may differ in a detail not shown here. Equal values may be shown once. Inconclusive results and toxic doses are left out. The calls were made as follows: active = survival T/C of 150% or more; inactive = T/C below 125% in these data. Peptide text beside a SMILES is read from it. * marks the point of attachment. Cbz = O=C(OCc1ccccc1)*; OBn = c1ccc(CO*)cc1

System: P388 leukemia ip, CD2F1 mice, survival T/C
Assay: NCI In Vivo Anticancer Drug Screen. Data for tumor model P388 Leukemia (intraperitoneal) in CD2F1 (CDF1) mice
Details: endpoint: median survival time, higher = longer survival
Outline: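 Mice carrying the transplanted tumor received test compound or vehicle. Survival was recorded in each group, and the value is the treated-group measurement divided by that of the vehicle-treated control group.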

[1] = dose: 60.0 mg/kg/injection, schedule: Q01DX005 (ip), vehicle: saline with Tween-80
[2] = dose: 120.0 mg/kg/injection, schedule: Q01DX005 (ip), vehicle: saline with Tween-80
[3] = dose: 240.0 mg/kg/injection, schedule: Q01DX005 (ip), vehicle: saline with Tween-80
[4] = dose: 200.0 mg/kg/injection, schedule: Q01DX005 (ip), vehicle: saline with Tween-80
[5] = dose: 12.5 mg/kg/injection, schedule: Q01DX005 (ip), vehicle: saline with Tween-80
[6] = dose: 25.0 mg/kg/injection, schedule: Q01DX005 (ip), vehicle: saline with Tween-80
[7] = dose: 50.0 mg/kg/injection, schedule: Q01DX005 (ip), vehicle: saline with Tween-80
[8] = dose: 50.0 mg/kg/injection, schedule: Q01DX009 (ip), vehicle: saline with Tween-80
[9] = dose: 100.0 mg/kg/injection, schedule: Q01DX009 (ip), vehicle: saline with Tween-80
[10] = dose: 60.0 mg/kg/injection, schedule: Q01DX005 (ip), vehicle: Klucel (hydroxypropylcellulose) (HPC)
[11] = dose: 120.0 mg/kg/injection, schedule: Q01DX005 (ip), vehicle: Klucel (hydroxypropylcellulose) (HPC)
[12] = dose: 50.0 mg/kg/injection, schedule: Q01DX009 (ip), vehicle: Klucel (hydroxypropylcellulose) (HPC)
[13] = dose: 100.0 mg/kg/injection, schedule: Q01DX005 (ip), vehicle: saline with Tween-80
[14] = dose: 240.0 mg/kg/injection, schedule: Q01DX005 (ip), vehicle: Klucel (hydroxypropylcellulose) (HPC)

Measured: T/C

COC(=O)C1c2cc3c(c(O)c2C(OC2OC(C)C(OC)C(C)(OC)C2OC)CC1(C)O)C(=O)c1c(O)cc2c(c1C3=O)OC1OC2(C)C(O)C(N(C)C=O)C1O (centres undefined)
inactive: dose: 1.56 mg/kg/injection, schedule: Q04DX003 (ip), vehicle: other 100 % of control | dose: 3.12 mg/kg/injection, schedule: Q04DX003 (ip), vehicle: other 96 % of control | dose: 6.25 mg/kg/injection, schedule: Q04DX003 (ip), vehicle: other 100 % of control | dose: 12.5 mg/kg/injection, schedule: Q04DX003 (ip), vehicle: other 110 % of control | dose: 25.0 mg/kg/injection, schedule: Q04DX003 (ip), vehicle: other 112 % of control

O=C(Cn1ccnc1)N1CCN(c2ccccc2)CC1
inactive: [1] 100 % of control | [2] 94 % of control | [3] 96 % of control

O=Cc1ccccc1C=O
inactive: dose: 100.0 mg/kg/injection, schedule: Q04DX002 (ip), vehicle: saline with Tween-80 98 % of control | dose: 200.0 mg/kg/injection, schedule: Q04DX002 (ip), vehicle: saline with Tween-80 107 % of control | dose: 400.0 mg/kg/injection, schedule: Q04DX002 (ip), vehicle: saline with Tween-80 102 % of control

CN(N=O)C(=O)NNC(=O)N(C)N=O
inactive: dose: 15.0 mg/kg/injection, schedule: Q04DX003 (ip), vehicle: saline with Tween-80 105 % of control | dose: 30.0 mg/kg/injection, schedule: Q01DX009 (ip), vehicle: saline with Tween-80 100 % of control | dose: 30.0 mg/kg/injection, schedule: Q04DX003 (ip), vehicle: saline with Tween-80 110 % of control | dose: 39.6 mg/kg/injection, schedule: Q04DX003 (ip), vehicle: saline with Tween-80 109 % of control | dose: 60.0 mg/kg/injection, schedule: Q04DX003 (ip), vehicle: saline with Tween-80 113 % of control

O=C1CS/C(=N/N=C/c2nc3ccccc3c(=O)n2-c2ccc(Cl)cc2)N1c1ccccc1
inactive: [4] 88 % of control

CC(C)C(NC(=O)C(Cc1ccccc1)NC(=O)OCc1ccccc1)C(=O)OCc1ccccc1 (stereo not drawn) (Cbz-Phe-Val-OBn; configuration not given here)
inactive: [5] 93 % of control | [6] 100 % of control | [7] 91 % of control and 97 % of control | [4] 92 % of control

N#CN1C2C=CC(c3ccccc3)NC21 (centres undefined)
inactive: [8] 100 % of control | [9] 96 % of control

CCN(CC)C(=O)c1ccccc1-c1ccccc1C(=O)N(CC)CC
inactive: dose: 100.0 mg/kg/injection, schedule: Q04DX003 (ip), vehicle: saline 101 % of control | dose: 200.0 mg/kg/injection, schedule: Q04DX003 (ip), vehicle: saline 98 % of control | dose: 400.0 mg/kg/injection, schedule: Q04DX003 (ip), vehicle: saline 95 % of control

COCCOCCN1CCN(CCCN2c3ccccc3Sc3ccc(C(F)(F)F)cc32)CC1
inactive: dose: 1.56 mg/kg/injection, schedule: Q04DX003 (ip), vehicle: saline 95 % of control | dose: 3.0 mg/kg/injection, schedule: Q04DX003 (ip), vehicle: saline 104 % of control and 97 % of control | dose: 3.12 mg/kg/injection, schedule: Q04DX003 (ip), vehicle: saline 95 % of control | dose: 6.0 mg/kg/injection, schedule: Q04DX003 (ip), vehicle: saline 108 % of control | dose: 6.25 mg/kg/injection, schedule: Q04DX003 (ip), vehicle: saline 96 % of control | dose: 12.0 mg/kg/injection, schedule: Q04DX003 (ip), vehicle: saline 104 % of control and 122 % of control | dose: 12.5 mg/kg/injection, schedule: Q04DX003 (ip), vehicle: saline 120 % of control | dose: 50.0 mg/kg/injection, schedule: Q04DX003 (ip), vehicle: saline 124 % of control

COc1cc(/C=N/NC(=O)COCC(=O)N/N=C/c2ccc(O)cc2OC)ccc1O
inactive: dose: 6.25 mg/kg/injection, schedule: Q01DX005 (ip), vehicle: saline with Tween-80 103 % of control | [5] 101 % of control | [6] 105 % of control

COc1ccccc1C1OC2=C(Nc3ccc([N+](=O)[O-])cc3N2)C1=O (centres undefined)
inactive: dose: 30.0 mg/kg/injection, schedule: Q01DX005 (ip), vehicle: Klucel (hydroxypropylcellulose) (HPC) 93 % of control | [10] 92 % of control | [11] 92 % of control and 96 % of control

CC(=O)N1C=CC(=Cc2ccccc2)C=C1
inactive: [12] 98 % of control | dose: 100.0 mg/kg/injection, schedule: Q01DX009 (ip), vehicle: Klucel (hydroxypropylcellulose) (HPC) 98 % of control | dose: 200.0 mg/kg/injection, schedule: Q01DX009 (ip), vehicle: Klucel (hydroxypropylcellulose) (HPC) 99 % of control

Cc1ccccc1[B-]12OCC[N+]1(CNC(=O)c1ccccc1O)CCO2 (centres undefined)
inactive: dose: 50.0 mg/kg/injection, schedule: Q01DX005 (ip), vehicle: Klucel (hydroxypropylcellulose) (HPC) 106 % of control | dose: 100.0 mg/kg/injection, schedule: Q01DX005 (ip), vehicle: Klucel (hydroxypropylcellulose) (HPC) 105 % of control | dose: 200.0 mg/kg/injection, schedule: Q01DX005 (ip), vehicle: Klucel (hydroxypropylcellulose) (HPC) 105 % of control

CC(=O)OCc1c(C)[nH]c2ccc(N(C)C)cc2c1=O
inactive: [1] 88 % of control | [2] 103 % of control | [3] 111 % of control

COc1ccc2[nH]c(=O)c(Br)c(C)c2c1
inactive: [7] 101 % of control | [13] 95 % of control | [4] 100 % of control

O=C(O)c1c(Cl)n(Cc2ccc(Cl)cc2Cl)c2ccccc12
inactive: [10] 100 % of control | [11] 103 % of control and 93 % of control | [14] 104 % of control and 93 % of control

O=C1CN(c2cccc(Cl)c2)C(=O)CN1/N=C/c1ccc[nH]1
inactive: [7] 92 % of control | [13] 102 % of control | [4] 90 % of control

O=C(CBr)Nc1c(Br)cc(Cl)cc1Br
inactive: [8] 100 % of control | [9] 88 % of control | dose: 200.0 mg/kg/injection, schedule: Q01DX009 (ip), vehicle: saline with Tween-80 100 % of control

O=c1[nH]nc(-c2ccc(Cl)cc2)c2c1[nH]c1ccccc12
inactive: [1] 98 % of control | [2] 97 % of control

c1ccc(C2Nc3ccccc3CO2)cc1 (centres undefined)
inactive: [10] 101 % of control | [11] 99 % of control | [14] 99 % of control

Nc1cccc2c1C(O)c1ccccc1-2 (centres undefined)
inactive: [7] 95 % of control | [13] 99 % of control | [4] 90 % of control

COC(=O)/C(=C1/OC(=O)C(c2ccccc2)=C1O)c1ccccc1
inactive: dose: 6.25 mg/kg/injection, schedule: Q01DX009 (ip), vehicle: Klucel (hydroxypropylcellulose) (HPC) 99 % of control | dose: 12.5 mg/kg/injection, schedule: Q01DX009 (ip), vehicle: Klucel (hydroxypropylcellulose) (HPC) 94 % of control | dose: 25.0 mg/kg/injection, schedule: Q01DX009 (ip), vehicle: Klucel (hydroxypropylcellulose) (HPC) 99 % of control | [12] 93 % of control | dose: 50.0 mg/kg/injection, schedule: Q01DX009 (ip), vehicle: saline 95 % of control
